System: P12-Ichikawa
Assay: cell viability relative to DMSO control; higher = less cytotoxic
Settings: 48 h
How it was run: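 Viability is expressed as a percentage of DMSO wells within each plate, and cell-free wells serve as background. Seeding densities in the 1536-well plates (5 μl) were 500 cells/well for NOMO1 or SEM leukemia cells and 1000 cells/well for P12-Ichikawa. Each line was adapted for at least four passages in each medium. Library compounds in DMSO were pin-dosed at 47 μM to 0.79 nM (11 points, threefold), and CellTiter-Glo One luminescence was read after 48 h at 37°C.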

[1] = HPLM + 10% dialyzed FBS, 0.000781 µM
[2] = HPLM + 10% dialyzed FBS, 0.00234 µM
[3] = HPLM + 10% dialyzed FBS, 0.00702 µM
[4] = HPLM + 10% dialyzed FBS, 0.0211 µM
[5] = HPLM + 10% dialyzed FBS, 0.0632 µM
[6] = HPLM + 10% dialyzed FBS, 0.19 µM
[7] = HPLM + 10% dialyzed FBS, 0.569 µM
[8] = HPLM + 10% dialyzed FBS, 1.71 µM
[9] = HPLM + 10% dialyzed FBS, 5.12 µM
[10] = HPLM + 10% dialyzed FBS, 15.4 µM
[11] = HPLM + 10% dialyzed FBS, 46.1 µM
[12] = RPMI 5 mM glucose + 10% FBS, 0.000781 µM
[13] = RPMI 5 mM glucose + 10% FBS, 0.00234 µM
[14] = RPMI 5 mM glucose + 10% FBS, 0.00702 µM
[15] = RPMI 5 mM glucose + 10% FBS, 0.0211 µM
[16] = RPMI 5 mM glucose + 10% FBS, 0.0632 µM
[17] = RPMI 5 mM glucose + 10% FBS, 0.19 µM
[18] = RPMI 5 mM glucose + 10% FBS, 0.569 µM
[19] = RPMI 5 mM glucose + 10% FBS, 1.71 µM
[20] = RPMI 5 mM glucose + 10% FBS, 5.12 µM
[21] = RPMI 5 mM glucose + 10% FBS, 15.4 µM
[22] = RPMI 5 mM glucose + 10% FBS, 46.1 µM
[23] = RPMI 5 mM glucose + 10% dialyzed FBS, 0.000781 µM
[24] = RPMI 5 mM glucose + 10% dialyzed FBS, 0.00234 µM
[25] = RPMI 5 mM glucose + 10% dialyzed FBS, 0.00702 µM
[26] = RPMI 5 mM glucose + 10% dialyzed FBS, 0.0211 µM
[27] = RPMI 5 mM glucose + 10% dialyzed FBS, 0.0632 µM
[28] = RPMI 5 mM glucose + 10% dialyzed FBS, 0.19 µM
[29] = RPMI 5 mM glucose + 10% dialyzed FBS, 0.569 µM
[30] = RPMI 5 mM glucose + 10% dialyzed FBS, 1.71 µM
[31] = RPMI 5 mM glucose + 10% dialyzed FBS, 5.12 µM
[32] = RPMI 5 mM glucose + 10% dialyzed FBS, 15.4 µM
[33] = RPMI 5 mM glucose + 10% dialyzed FBS, 46.1 µM

Compound	cell viability [1] [%]	cell viability [2] [%]	cell viability [3] [%]	cell viability [4] [%]	cell viability [5] [%]	cell viability [6] [%]	cell viability [7] [%]	cell viability [8] [%]	cell viability [9] [%]	cell viability [10] [%]	cell viability [11] [%]	cell viability [12] [%]	cell viability [13] [%]	cell viability [14] [%]	cell viability [15] [%]	cell viability [16] [%]	cell viability [17] [%]	cell viability [18] [%]	cell viability [19] [%]	cell viability [20] [%]	cell viability [21] [%]	cell viability [22] [%]	cell viability [23] [%]	cell viability [24] [%]	cell viability [25] [%]	cell viability [26] [%]	cell viability [27] [%]	cell viability [28] [%]	cell viability [29] [%]	cell viability [30] [%]	cell viability [31] [%]	cell viability [32] [%]	cell viability [33] [%]
C[C@]12Cc3cn[nH]c3C[C@@H]1CC[C@@H]1[C@@H]2CC[C@@]2(C)[C@H]1CC[C@]2(C)O	105	116	113	113	125	110	98.1	107	101	120	103	108	64.2	123	112	120	109	102	106	113	110	93.7	97.4	112	111	97.2	106	111	105	99.6	96.9	97.5	93.1
CC[C@]12CC[C@H]3[C@@H](CCC/4=C/C(=O)CC[C@H]34)[C@@H]1CC[C@@]2(O)C#C	94.2	85.6	83.8	87.2	104	89.2	68.9	79.3	85.5	82.6	90.5	86.3	88.3	87.2	90.4	85.1	83.9	75.1	88	86.1	79.6	83.7	83.3	79.5	88.3	79.3	86.7	78	81.3	77	83.1	73	79.7
